From patent publication US6162875A, “Low nitrosamine systems for rubber vulcanization” (Robinson Brothers Limited, priority 1992, dated 2000)

Legend:
[1] = test system: bacterial strains TA 1535, TA 1537, TA 1538, TA 98 and TA 100; experiment: Ames test for mutagenicity, revertant colony counts; conditions: 50, 150, 500, 1500, 5000 μg/plate, with and without metabolic activation, five strains
[2] = test system: bacterial strains TA 1535, TA 1537, TA 1538, TA 98 and TA 100; experiment: Preliminary test for toxicity to the bacterial strains (Ames test); conditions: for precipitates observed: 5000 μg dose, all strains
[3] = test system: TA 1535
[4] = test system: TA 100

Compound	increase of revertant colony counts over control values [1]	precipitates observed [2]	toxicity to the bacterial strains ([2]; doses up to and including 5000 μg/plate)	mutagenic to TA 1535 [3]	mutagenic to TA 100 [4]
N-nitrosodiisononylamine	no increase of revertant colony counts over control values	–	–	–	–
O=NN(Cc1ccccc1)Cc1ccccc1 [N-nitrosodibenzylamine]	no increase of revertant colony counts over control values	precipitates were observed	non-toxic	–	–
zinc diisononyldithiocarbamate [Example 1]	no increase of revertant colony counts over control values	precipitates were observed	–	–	–
CN(C)N=O [dimethylnitrosamine]	–	–	–	mutagenic	mutagenic
